Measured values published in article PMC9927415, “Tyrosine Kinase Inhibitors Display Potent Activity against Cryptosporidium parvum” (Microbiology Spectrum, 2022).

Legend:
Assay in all cases: KINOMEscan competitive binding, whole panel
panel of 203 kinases [1] = molecular target: T1, panel of 203 kinases (Homo sapiens, UniProt P28482); details: 10 µM, n=1; kinase ERK2; read-out: Percent inhibition ERK2
T1 construct: purchased DiscoverX (KINOMEscan)
In short: (§1)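 Kinases were expressed as T7 bacteriophage fusions, and test compounds competed with immobilized ATP-site probe ligands for binding. Kinase remaining bound to the solid-support probe was quantified, and values are given as percentage inhibition.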

panel of 203 kinases [2] = molecular target: T2, panel of 203 kinases (Homo sapiens, UniProt Q9Y2H1); details: 10 µM, n=1; kinase NDR2; read-out: Percent inhibition NDR2
T2 construct: purchased DiscoverX (KINOMEscan)
In short: as §1

panel of 203 kinases [3] = molecular target: T3, panel of 203 kinases (Homo sapiens, UniProt P54756); details: 10 µM, n=1; kinase EPHA5; read-out: Percent inhibition EPHA5
T3 construct: purchased DiscoverX (KINOMEscan)
In short: as §1

panel of 203 kinases [4] = molecular target: T4, panel of 203 kinases (Homo sapiens, UniProt O94804); details: 10 µM, n=1; kinase LOK; read-out: Percent inhibition LOK
T4 construct: purchased DiscoverX (KINOMEscan)
In short: as §1

panel of 203 kinases [5] = molecular target: T5, panel of 203 kinases (Homo sapiens, UniProt P00519); details: 10 µM, n=1; kinase ABL1; read-out: Percent inhibition ABL1
T5 construct: purchased DiscoverX (KINOMEscan)
In short: as §1

panel of 203 kinases [6] = molecular target: T6, panel of 203 kinases (Homo sapiens, UniProt Q8N5S9); details: 10 µM, n=1; kinase CAMKK1; read-out: Percent inhibition CAMKK1
T6 construct: purchased DiscoverX (KINOMEscan)
In short: as §1

panel of 203 kinases [7] = molecular target: T7, panel of 203 kinases (Homo sapiens, UniProt Q13705); details: 10 µM, n=1; kinase ACVR2B; read-out: Percent inhibition ACVR2B
T7 construct: purchased DiscoverX (KINOMEscan)
In short: as §1

panel of 203 kinases [8] = molecular target: T8, panel of 203 kinases (Homo sapiens, UniProt Q9UM73); details: 10 µM, n=1; kinase ALK; read-out: Percent inhibition ALK
T8 construct: purchased DiscoverX (KINOMEscan)
In short: as §1

panel of 203 kinases [9] = molecular target: T9, panel of 203 kinases (Homo sapiens, UniProt P22607); details: 10 µM, n=1; kinase FGFR3; read-out: Percent inhibition FGFR3
T9 construct: purchased DiscoverX (KINOMEscan)
In short: as §1

panel of 203 kinases [10] = molecular target: T10, panel of 203 kinases (Homo sapiens, UniProt O43293); details: 10 µM, n=1; kinase DAPK3; read-out: Percent inhibition DAPK3
T10 construct: purchased DiscoverX (KINOMEscan)
In short: as §1

panel of 203 kinases [11] = molecular target: T11, panel of 203 kinases (Homo sapiens, UniProt Q9UQM7); details: 10 µM, n=1; kinase CAMK2A; read-out: Percent inhibition CAMK2A
T11 construct: purchased DiscoverX (KINOMEscan)
In short: as §1

panel of 203 kinases [12] = molecular target: T12, panel of 203 kinases (Homo sapiens, UniProt P27361); details: 10 µM, n=1; kinase ERK1; read-out: Percent inhibition ERK1
T12 construct: purchased DiscoverX (KINOMEscan)
In short: as §1

panel of 203 kinases [13] = molecular target: T13, panel of 203 kinases (Homo sapiens, UniProt Q96L34); details: 10 µM, n=1; kinase MARK4; read-out: Percent inhibition MARK4
T13 construct: purchased DiscoverX (KINOMEscan)
T13 sequence (Q96L34 1-752): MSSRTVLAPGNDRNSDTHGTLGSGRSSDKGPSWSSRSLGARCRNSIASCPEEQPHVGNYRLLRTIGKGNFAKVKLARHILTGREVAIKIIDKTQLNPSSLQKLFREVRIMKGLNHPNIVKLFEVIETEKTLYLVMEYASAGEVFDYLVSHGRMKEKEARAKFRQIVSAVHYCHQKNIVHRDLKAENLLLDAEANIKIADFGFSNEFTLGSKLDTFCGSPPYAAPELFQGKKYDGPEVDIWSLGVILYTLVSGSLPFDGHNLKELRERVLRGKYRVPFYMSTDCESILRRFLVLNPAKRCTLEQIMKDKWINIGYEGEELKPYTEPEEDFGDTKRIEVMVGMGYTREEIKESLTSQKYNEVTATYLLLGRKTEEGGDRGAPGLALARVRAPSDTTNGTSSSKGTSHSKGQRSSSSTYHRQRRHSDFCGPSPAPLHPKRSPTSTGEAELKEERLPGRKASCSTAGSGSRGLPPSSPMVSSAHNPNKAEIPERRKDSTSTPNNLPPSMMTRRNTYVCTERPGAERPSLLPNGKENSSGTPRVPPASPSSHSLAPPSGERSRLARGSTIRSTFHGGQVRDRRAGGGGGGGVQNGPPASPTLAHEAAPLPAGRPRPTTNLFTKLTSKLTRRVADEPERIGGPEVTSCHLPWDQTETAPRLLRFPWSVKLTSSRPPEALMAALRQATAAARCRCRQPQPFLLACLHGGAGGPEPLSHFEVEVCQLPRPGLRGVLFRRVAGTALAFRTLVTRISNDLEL
In short: as §1

panel of 203 kinases [14] = molecular target: T14, panel of 203 kinases (Homo sapiens, UniProt Q9Y6R4); details: 10 µM, n=1; kinase MAP3K4; read-out: Percent inhibition MAP3K4
T14 construct: purchased DiscoverX (KINOMEscan)
In short: as §1

panel of 203 kinases [15] = molecular target: T15, panel of 203 kinases (Homo sapiens, UniProt Q13557); details: 10 µM, n=1; kinase CAMK2D; read-out: Percent inhibition CAMK2D
T15 construct: purchased DiscoverX (KINOMEscan)
In short: as §1

panel of 203 kinases [16] = molecular target: T16, panel of 203 kinases (Homo sapiens, UniProt Q09013); details: 10 µM, n=1; kinase DMPK; read-out: Percent inhibition DMPK
T16 construct: purchased DiscoverX (KINOMEscan)
T16 sequence (Q09013 1-629): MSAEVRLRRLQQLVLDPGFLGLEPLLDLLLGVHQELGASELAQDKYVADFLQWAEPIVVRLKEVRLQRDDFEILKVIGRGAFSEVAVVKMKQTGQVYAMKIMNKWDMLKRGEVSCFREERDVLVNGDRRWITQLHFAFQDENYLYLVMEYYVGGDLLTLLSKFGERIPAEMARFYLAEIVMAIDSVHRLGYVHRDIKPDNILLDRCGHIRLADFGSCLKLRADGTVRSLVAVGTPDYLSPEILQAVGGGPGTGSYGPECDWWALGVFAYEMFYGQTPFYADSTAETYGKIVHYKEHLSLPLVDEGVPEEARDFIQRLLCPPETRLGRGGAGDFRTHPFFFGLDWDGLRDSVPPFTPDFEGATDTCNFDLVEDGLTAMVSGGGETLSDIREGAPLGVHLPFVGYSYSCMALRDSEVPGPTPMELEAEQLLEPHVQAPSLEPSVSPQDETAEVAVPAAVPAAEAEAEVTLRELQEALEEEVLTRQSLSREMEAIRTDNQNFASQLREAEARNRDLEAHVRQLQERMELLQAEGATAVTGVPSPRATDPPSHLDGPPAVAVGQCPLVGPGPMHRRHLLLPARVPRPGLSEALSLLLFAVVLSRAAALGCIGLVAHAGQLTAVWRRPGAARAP
In short: as §1

T1 sequence (P28482 whole entry): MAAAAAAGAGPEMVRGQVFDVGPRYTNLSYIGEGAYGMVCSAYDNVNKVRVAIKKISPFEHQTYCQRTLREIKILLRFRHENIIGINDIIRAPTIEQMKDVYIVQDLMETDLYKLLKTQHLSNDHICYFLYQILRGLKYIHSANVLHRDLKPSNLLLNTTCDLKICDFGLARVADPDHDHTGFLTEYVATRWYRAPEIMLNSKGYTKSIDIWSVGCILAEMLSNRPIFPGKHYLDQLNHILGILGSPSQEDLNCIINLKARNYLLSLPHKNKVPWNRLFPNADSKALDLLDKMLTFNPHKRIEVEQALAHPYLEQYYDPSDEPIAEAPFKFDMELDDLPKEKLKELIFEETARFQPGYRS
T7 sequence (Q13705 19-512): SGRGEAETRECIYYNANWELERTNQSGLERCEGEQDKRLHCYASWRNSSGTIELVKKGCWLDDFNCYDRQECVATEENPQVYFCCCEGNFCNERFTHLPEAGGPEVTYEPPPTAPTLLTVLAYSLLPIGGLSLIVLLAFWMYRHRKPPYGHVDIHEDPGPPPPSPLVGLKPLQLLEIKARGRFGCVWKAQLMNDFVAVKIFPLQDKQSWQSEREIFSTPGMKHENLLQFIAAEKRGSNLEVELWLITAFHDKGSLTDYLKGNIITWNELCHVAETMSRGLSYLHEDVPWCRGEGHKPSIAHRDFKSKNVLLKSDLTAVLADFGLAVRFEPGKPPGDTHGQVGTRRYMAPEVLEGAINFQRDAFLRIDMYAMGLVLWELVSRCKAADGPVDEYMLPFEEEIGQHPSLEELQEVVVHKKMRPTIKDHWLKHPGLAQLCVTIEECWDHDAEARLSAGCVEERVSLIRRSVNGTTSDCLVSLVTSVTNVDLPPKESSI
T11 sequence (Q9UQM7 whole entry): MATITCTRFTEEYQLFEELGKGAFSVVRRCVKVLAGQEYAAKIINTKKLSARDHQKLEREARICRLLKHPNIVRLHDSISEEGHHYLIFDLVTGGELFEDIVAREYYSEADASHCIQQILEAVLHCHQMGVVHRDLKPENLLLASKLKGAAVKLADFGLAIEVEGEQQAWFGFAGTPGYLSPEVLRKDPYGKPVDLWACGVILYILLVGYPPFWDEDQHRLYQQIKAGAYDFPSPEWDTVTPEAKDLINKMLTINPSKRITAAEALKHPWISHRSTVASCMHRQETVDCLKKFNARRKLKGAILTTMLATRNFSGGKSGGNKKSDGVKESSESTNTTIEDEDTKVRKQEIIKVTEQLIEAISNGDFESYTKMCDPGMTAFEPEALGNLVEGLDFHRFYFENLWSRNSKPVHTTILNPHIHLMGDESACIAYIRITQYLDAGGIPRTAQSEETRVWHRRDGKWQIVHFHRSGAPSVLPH
T5 sequence (P00519 whole entry): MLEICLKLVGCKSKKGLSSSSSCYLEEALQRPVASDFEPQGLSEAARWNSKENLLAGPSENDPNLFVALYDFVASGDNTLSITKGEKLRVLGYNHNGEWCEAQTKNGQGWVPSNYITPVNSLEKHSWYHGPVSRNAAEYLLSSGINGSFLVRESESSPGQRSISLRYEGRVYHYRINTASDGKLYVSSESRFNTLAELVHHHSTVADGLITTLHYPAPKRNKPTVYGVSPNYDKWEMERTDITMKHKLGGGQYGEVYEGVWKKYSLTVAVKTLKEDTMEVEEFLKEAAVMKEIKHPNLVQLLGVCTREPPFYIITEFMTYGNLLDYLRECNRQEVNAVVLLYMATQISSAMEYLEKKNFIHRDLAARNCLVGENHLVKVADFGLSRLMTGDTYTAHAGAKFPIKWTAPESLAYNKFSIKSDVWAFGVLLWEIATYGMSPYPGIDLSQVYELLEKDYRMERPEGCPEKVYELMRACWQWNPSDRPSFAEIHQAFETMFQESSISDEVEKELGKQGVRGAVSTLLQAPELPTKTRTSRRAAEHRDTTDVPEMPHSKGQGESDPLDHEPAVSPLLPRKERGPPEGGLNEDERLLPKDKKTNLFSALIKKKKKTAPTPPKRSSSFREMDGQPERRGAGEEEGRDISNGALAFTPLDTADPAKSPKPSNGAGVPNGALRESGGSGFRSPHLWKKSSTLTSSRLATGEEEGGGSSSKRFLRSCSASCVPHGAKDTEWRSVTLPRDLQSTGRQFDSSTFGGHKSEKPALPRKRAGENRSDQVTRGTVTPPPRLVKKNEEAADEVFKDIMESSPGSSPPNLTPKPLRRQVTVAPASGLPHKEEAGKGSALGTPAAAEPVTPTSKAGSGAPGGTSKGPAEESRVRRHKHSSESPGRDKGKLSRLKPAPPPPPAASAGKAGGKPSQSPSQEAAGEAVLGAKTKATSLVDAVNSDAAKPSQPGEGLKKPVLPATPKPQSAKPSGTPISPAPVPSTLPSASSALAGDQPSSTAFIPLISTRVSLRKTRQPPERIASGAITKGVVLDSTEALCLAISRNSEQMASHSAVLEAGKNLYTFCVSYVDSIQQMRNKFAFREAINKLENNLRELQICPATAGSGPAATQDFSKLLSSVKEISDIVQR
T8 sequence (Q9UM73 19-1620): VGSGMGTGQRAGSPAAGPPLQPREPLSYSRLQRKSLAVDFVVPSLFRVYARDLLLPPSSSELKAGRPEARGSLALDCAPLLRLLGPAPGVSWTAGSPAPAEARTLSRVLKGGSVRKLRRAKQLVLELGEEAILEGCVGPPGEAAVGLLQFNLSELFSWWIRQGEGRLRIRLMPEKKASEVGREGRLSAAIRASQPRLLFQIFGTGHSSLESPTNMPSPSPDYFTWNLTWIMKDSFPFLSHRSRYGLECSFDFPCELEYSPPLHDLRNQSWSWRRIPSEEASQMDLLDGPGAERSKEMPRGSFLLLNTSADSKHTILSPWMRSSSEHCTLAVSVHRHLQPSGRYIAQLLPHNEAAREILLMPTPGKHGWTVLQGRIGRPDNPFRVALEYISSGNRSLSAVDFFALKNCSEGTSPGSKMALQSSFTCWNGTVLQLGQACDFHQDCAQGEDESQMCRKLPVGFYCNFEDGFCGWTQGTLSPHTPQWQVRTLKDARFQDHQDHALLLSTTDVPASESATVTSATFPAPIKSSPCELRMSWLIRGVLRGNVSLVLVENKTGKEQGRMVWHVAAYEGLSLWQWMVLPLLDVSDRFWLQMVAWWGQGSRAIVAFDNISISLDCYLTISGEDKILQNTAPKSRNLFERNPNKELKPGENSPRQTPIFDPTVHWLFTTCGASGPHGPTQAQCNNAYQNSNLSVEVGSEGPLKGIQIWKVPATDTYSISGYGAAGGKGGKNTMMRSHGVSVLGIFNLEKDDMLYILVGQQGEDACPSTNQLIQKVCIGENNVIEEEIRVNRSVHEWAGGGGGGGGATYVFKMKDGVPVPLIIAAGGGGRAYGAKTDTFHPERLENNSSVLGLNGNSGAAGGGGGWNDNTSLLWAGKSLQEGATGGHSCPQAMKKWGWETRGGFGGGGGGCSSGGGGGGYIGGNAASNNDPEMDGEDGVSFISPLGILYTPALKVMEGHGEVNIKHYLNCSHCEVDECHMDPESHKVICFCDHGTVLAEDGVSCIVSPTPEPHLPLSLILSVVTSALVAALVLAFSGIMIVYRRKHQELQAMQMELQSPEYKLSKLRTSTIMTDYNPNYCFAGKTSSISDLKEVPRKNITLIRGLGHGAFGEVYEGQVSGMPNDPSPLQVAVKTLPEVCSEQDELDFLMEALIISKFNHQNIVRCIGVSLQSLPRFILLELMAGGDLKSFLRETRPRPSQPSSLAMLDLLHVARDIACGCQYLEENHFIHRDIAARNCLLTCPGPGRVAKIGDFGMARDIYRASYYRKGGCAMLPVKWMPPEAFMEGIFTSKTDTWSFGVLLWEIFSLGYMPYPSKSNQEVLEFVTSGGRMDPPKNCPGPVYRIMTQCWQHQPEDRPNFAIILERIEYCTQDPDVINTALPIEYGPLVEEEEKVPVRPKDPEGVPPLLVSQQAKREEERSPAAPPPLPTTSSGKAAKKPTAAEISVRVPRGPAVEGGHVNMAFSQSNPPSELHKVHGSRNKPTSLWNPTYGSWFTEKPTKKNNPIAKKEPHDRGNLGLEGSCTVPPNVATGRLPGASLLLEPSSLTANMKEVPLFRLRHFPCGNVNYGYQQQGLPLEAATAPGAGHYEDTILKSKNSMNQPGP
T15 sequence (Q13557 whole entry): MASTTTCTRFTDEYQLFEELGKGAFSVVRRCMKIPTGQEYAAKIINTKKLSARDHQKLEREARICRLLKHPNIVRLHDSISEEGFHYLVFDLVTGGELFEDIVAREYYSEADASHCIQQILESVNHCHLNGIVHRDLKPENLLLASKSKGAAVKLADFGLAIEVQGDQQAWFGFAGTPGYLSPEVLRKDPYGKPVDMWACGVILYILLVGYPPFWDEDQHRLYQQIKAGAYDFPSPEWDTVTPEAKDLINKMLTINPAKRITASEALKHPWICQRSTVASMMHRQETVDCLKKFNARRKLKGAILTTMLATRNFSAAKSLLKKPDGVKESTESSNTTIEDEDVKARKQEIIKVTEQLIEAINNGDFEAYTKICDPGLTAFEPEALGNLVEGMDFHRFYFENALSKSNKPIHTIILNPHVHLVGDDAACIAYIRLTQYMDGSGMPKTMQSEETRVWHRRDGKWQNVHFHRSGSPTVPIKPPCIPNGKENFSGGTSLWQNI
T6 sequence (Q8N5S9 whole entry): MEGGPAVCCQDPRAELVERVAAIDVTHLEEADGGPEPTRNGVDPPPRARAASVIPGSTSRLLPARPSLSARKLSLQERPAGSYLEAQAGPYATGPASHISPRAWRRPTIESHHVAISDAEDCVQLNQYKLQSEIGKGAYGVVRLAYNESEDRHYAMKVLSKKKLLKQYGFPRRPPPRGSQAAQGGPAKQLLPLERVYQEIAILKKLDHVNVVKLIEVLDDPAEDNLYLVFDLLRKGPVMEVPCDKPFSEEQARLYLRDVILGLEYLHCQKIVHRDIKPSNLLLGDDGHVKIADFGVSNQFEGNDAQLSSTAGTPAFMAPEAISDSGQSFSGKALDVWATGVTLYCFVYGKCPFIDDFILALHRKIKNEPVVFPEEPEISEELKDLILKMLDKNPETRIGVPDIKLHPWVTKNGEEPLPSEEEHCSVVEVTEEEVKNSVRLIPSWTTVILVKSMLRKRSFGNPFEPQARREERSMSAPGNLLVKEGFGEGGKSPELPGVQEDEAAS

Row | SMILES | inhibition at 10 µM (panel of 203 kinases [1]) [%] | inhibition at 10 µM (panel of 203 kinases [2]) [%] | inhibition at 10 µM (panel of 203 kinases [3]) [%] | inhibition at 10 µM (panel of 203 kinases [4]) [%] | inhibition at 10 µM (panel of 203 kinases [5]) [%] | inhibition at 10 µM (panel of 203 kinases [6]) [%] | inhibition at 10 µM (panel of 203 kinases [7]) [%] | inhibition at 10 µM (panel of 203 kinases [8]) [%] | inhibition at 10 µM (panel of 203 kinases [9]) [%] | inhibition at 10 µM (panel of 203 kinases [10]) [%] | inhibition at 10 µM (panel of 203 kinases [11]) [%] | inhibition at 10 µM (panel of 203 kinases [12]) [%] | inhibition at 10 µM (panel of 203 kinases [13]) [%] | inhibition at 10 µM (panel of 203 kinases [14]) [%] | inhibition at 10 µM (panel of 203 kinases [15]) [%] | inhibition at 10 µM (panel of 203 kinases [16]) [%]
1 | CN1CCN(c2ccc(Nc3nccc(-c4cnn5ncccc45)n3)cc2C#N)CC1 [Compound 1] | 100 | 0 | 80.2 | 88.7 | 87.3 | 99.2 | 0 | 99.1 | 0 | 98.5 | 98.7 | 98.5 | 0 | 91 | 96.5 | 0
2 | COc1ccc(Nc2nccc(-c3cnn4ncccc34)n2)cc1 [Compound 2] | 99.2 | 91.7 | 91.8 | 0 | 0 | 97.4 | 80.3 | 94.8 | 67.6 | 0 | 82.5 | 98.5 | 67.8 | 0 | 79.5 | 0
3 | Cc1ccc(O)cc1Nc1ccnc(Nc2cccc(C(N)=O)c2)n1 [Compound 3] | 0 | 0 | 100 | 82.6 | 99.7 | 0 | 100 | 0 | 0 | 0 | 0 | 67.8 | 0 | 0 | 0 | 0
4 | Cc1ccc(O)cc1N(C)c1ccnc(Nc2cccc(S(N)(=O)=O)c2)n1 [Compound 4] | 64 | 69.4 | 100 | 99.6 | 99.8 | 0 | 100 | 0 | 65.4 | 0 | 0 | 98.1 | 0 | 0 | 0 | 0
5 | Fc1cccc(COc2ccc(Nc3ncnc4c3CN(CCN3CCOCC3)CC4)cc2Cl)c1 [Compound 6] | 0 | 0 | 0 | 0 | 0 | 0 | 0 | 0 | 96.3 | 0 | 0 | 0 | 0 | 0 | 0 | 0
6 | COc1cc(Nc2nccc(-c3sc(N)nc3-c3cccc(NC(=O)c4c(F)cccc4F)c3)n2)cc(OC)c1OC [Compound 7] | 100 | 100 | 100 | 100 | 99.7 | 0 | 97.5 | 0 | 100 | 0 | 0 | 99.8 | 0 | 99.6 | 0 | 87.5
7 | C[C@@H](Oc1cc(-c2cnc3ccccn23)sc1C(N)=O)c1ccccc1Cl [Compound 8] | 80.6 | 0 | 0 | 100 | 0 | 0 | 0 | 0 | 0 | 89.3 | 66.5 | 83.2 | 0 | 0 | 0 | 0
8 | c1ccc(COc2cccc(-c3ccnc4[nH]ccc34)c2)cc1 [Compound 9] | 0 | 0 | 0 | 0 | 0 | 0 | 0 | 0 | 0 | 0 | 0 | 0 | 0 | 0 | 0 | 0
9 | Clc1ccc(Nc2ncc(-c3ccccc3)s2)cc1 [Compound 10] | 0 | 0 | 0 | 0 | 0 | 0 | 0 | 0 | 0 | 0 | 0 | 0 | 0 | 0 | 0 | 0
10 | Nc1ncc2c(-c3ccncc3)c[nH]c2n1 [Compound 11] | 0 | 0 | 0 | 0 | 0 | 0 | 65.7 | 0 | 0 | 0 | 77.6 | 0 | 93.8 | 0 | 0 | 0
